Test results reported in patent publication US11572371B2, “BRD4 inhibitor” (HINOVA PHARMACEUTICALS INC., priority 2017, dated 2023).

Assays:
BRD3(1, 2) = BRD3(1, 2) (Homo sapiens (Human), UniProt Q15059); experiment: AlphaScreen binding assay, BRD3 (D1+D2)
Procedure: (§1) Homogeneous time-resolved fluorescence (HTRF) was used to detect the binding of the compound to BRD4 (D1 +D2) and BRDT (D1) proteins, and the AlphaScreen method was used to detect the binding of the compound to BRD2 (D1+D2) and BRD3 (D1+D2) proteins.
(§2) Compounds were screened in vitro, and each concentration of the compound was diluted to 10 different concentrations. Four proteins, BRD4 (D1 +D2), BRDT (D1), BRD2 (D1+D2) and BRD3 (D1+D2), were selected to determine their IC50 values (see Table 1).
(§3) The test compound was dissolved in dimethylsulfoxide (DMSO) and stored at a concentration of 10 mM.
(§4) 6. AlphaScreen detection step:
(§5) 1) Preparing 1-fold concentration of detection buffer
(§6) 1-fold concentration of detection buffer was prepared (modified HEPES buffer).
(§7) 2) Gradient dilution of compounds
(§8) The compound was transferred to the detection plate with an Echo autosampler for gradient dilution, so that the final concentration of dimethyl sulfoxide was 0.1%.
(§9) 3) Preparation of protein solution
(§10) The protein was dissolved in a 1-fold concentration of detection buffer.
(§11) 4) Preparation of substrate solution
(§12) The peptide was dissolved in 1-fold concentration of detection buffer to prepare a substrate solution.
(§13) 5) 5 μL protein solution was transferred to the assay plate, and 5 μL 1-fold concentration of detection buffer was placed in the negative control well.
(§14) 6) The plate was incubated at room temperature for 15 minutes.
(§15) 7) 5 μL substrate solution was added to each well to start the reaction.
(§16) 8) The plate was incubated at room temperature for 60 minutes.
(§17) 9) Acceptor and donor solutions were prepared in 1-fold concentration of assay buffer.
(§18) 15 μL acceptor and donor solution were added, respectively, and the plate was incubated at room temperature for 60 minutes without light.
(§19) 10) The end point was read in EnSpire and Alpha mode.
(§20) 11) The curve was fitted.
(§21) The experimental data were entered into an Excel file, and the equation (1) was used to get the inhibitory rate. Inh %=(Max−Signal)/(Max−Min)*100 Equation (1)
(§22) The resultant data were entered into GraphPad software, and the IC50 value was obtained using equation (2). Y=Bottom+(Top−Bottom)/(1+10^((LogIC50−X)*Hill Slope)) Equation (2)
(§23) Wherein, Y-axis is the inhibition rate, while X-axis is the compound concentration.

BRD2(1, 2) = BRD2(1, 2) (Homo sapiens (Human), UniProt P25440); experiment: AlphaScreen binding assay, BRD2 (D1+D2)
Chain of BRD2(1, 2) (P25440 65-459): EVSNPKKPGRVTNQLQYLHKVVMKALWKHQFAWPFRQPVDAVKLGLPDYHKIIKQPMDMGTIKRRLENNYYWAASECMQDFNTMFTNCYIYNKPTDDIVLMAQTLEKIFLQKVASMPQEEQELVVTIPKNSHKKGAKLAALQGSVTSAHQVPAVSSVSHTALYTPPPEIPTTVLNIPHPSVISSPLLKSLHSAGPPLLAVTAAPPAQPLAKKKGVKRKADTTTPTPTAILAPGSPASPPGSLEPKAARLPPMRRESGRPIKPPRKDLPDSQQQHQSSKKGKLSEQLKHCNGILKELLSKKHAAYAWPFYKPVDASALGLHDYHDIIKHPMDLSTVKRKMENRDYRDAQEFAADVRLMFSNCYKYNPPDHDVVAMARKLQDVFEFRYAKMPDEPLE
Procedure: as §1, §2, §3, §4, §5, §6, §7, §8, §9, §10, §11, §12, §13, §14, §15, §16, §17, §18, §19, §20, §21, §22, §23

CWR22RV1 cells = experiment: Inhibition of CWR22RV1 cell proliferation (CCK-8); type: cell-based; conditions: Homo sapiens, CWR22Rv1, 144 h; cultured for 6 days, CCK-8; read-out: IC50 on CWR22RV1
Procedure: Test Example 2 Biological Determination of the Inhibitory Effect of the Compound on CWR22RV1 Cell Proliferation
Experimental Materials: • CWR22RV1 cell line (Cell bank of Chinese Academy of Sciences, TCHu100) • FBS (Gibco, Cat. No. 10099-141) • 0.01M PBS (Biosharp, Cat. No. 162262) • RIPM1640 (Hyclone, Cat. No. 308090.01) • Penicillin-Streptomycin (Hyclone, Cat. No. SV30010) • Cell counting kit-8(Signalway Antibody, Cat. No. CP002) • DMSO (Sigma, Cat. No. D5879) • Centrifuge Tube, 15 ml (Excell Bio, Cat. No. CS015-0001) • Cell Culture Dish, (Excell Bio, Cat. No. CS016-0128) • 96-well cell culture cluster (Corning, Cat. No. 3599)
(1) CWR22RV1 cells were subcultured with cell culture medium, and well-growth cells were inoculated in 96-well plates, with 80 μL per well. The number of cells in each well was 1500, and the plate was cultured overnight in a 37° C., 5% CO2 cell incubator.
(2) The drug was prepared as a 30 mM stock solution using dimethyl sulfoxide (DMSO). before use, the stock solution was diluted 3 times with DMSO, and then diluted by a 3 times gradient to obtain 9 concentration gradients. The compound at each concentration was further diluted 200 times with the culture solution (to ensure that the DMSO concentration in the culture system was 0.1%), and each concentration was repeated 2 wells. 20 μL of the diluted compound was added to the cell culture wells (with final concentrations of 10 μM, 3.3 μM, 1.1 μM . . . ), and gently shaked to mix. In addition, three negative control wells containing only cells and three blank control wells containing only culture medium (6 wells each containing 20 μL DMSO 200-fold diluted with culture medium) were set.
(1) After being cultured for 6 days, 10 μL CCK-8 was added to each well, and the cells were further cultured in a 5% CO2 cell incubator at 37° C. for 2.5 hours.
(2) The absorbance (OD value) was measured at 450 nm with a multifunctional microplate reader.
(3) The data were analyzed with the Dose-response-inhibition equation in the software GraphPad Prism6, and IC50 values were obtained.

BRDT(D1) = BRDT(D1) (Homo sapiens (Human), UniProt Q58F21); experiment: HTRF binding assay, BRDT (D1)
Procedure: as §1, §2
BRDT(D1)(Active Motif, Cat.No.31450)
as §3
5. Homogeneous Time-Resolved Fluorescence Detection Steps:
1) All compounds were gradiently diluted on Echo plate according to the arrangement of the test plate. The final concentration of DMSO was 0.1%.
2) Compounds or DMSO was transferred to a 384-well assay plate by using Echo autosampler.
3) 2× concentration of protein and peptide mixture was added to the assay plate.
4) 2× concentration of the mixed detection solution was added to the assay plate and shaken for 30 seconds.
5) The plate was incubated at room temperature for 2 hours.
6) The fluorescence signal was read on Envision microplate reader (with excitation light wavelength at 340 nm and emission light wavelength at 615 nm and 665 nm).
as §21, §22, §23

BRD4(1, 2) = BRD4(1, 2) (Homo sapiens (Human), UniProt O60885); experiment: HTRF binding assay, BRD4 (D1+D2)
Text: The experimental data were entered into an Excel file, and the equation (1) was used to get the inhibitory rate. Inh %=(Max−Signal)/(Max−Min)*100 Equation (1) […]

Chain of BRD3(1, 2) (Q15059 29-417): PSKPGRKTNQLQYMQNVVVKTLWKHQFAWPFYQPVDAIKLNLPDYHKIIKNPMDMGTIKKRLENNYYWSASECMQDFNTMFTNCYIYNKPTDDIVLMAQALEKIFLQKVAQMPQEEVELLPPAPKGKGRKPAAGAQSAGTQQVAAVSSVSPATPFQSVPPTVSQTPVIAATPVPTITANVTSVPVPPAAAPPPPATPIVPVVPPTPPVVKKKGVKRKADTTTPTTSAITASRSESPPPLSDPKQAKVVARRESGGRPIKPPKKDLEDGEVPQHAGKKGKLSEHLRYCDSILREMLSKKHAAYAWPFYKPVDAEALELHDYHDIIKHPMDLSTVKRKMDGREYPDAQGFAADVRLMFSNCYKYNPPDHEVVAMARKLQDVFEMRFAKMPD

SMILES: Cc1sc2c(c1C)C(c1ccc(Cl)cc1)=N[C@@H](Cc1nnc(C(C)C)o1)c1nnc(C)n1-2 [Compound 19, (S)-2-((4-(4-chlorophenyl)-2,3,9-trimethyl-6H-thieno[3,2-f][1,2,4]triazolo[4,3-a][1,4]diaza-6-yl)methyl)-5-isopropyl-1,3,4-oxodiazole]
- IC50 (BRD3(1, 2)): 17 nM
- IC50 (BRD2(1, 2)): 8.3 nM
- IC50 (CWR22RV1 cells): 28 nM
- IC50 (BRDT(D1)): 51 nM

SMILES: CCc1nnc(C[C@@H]2N=C(c3ccc(Cl)cc3)c3c(sc(C)c3C)-n3c(C)nnc32)o1 [Compound 22, (S)-2-((4-(4-chlorophenyl)-2,3,9-trimethyl-6H-thieno[3,2-f][1,2,4]triazolo[4,3-a][1,4]diaza-6-yl)methyl)-5-ethyl-1,3,4-oxodiazole]
- IC50 (BRD4(1, 2)): 25 nM
- IC50 (BRD3(1, 2)): 21 nM
- IC50 (BRD2(1, 2)): 10.8 nM
- IC50 (CWR22RV1 cells): 47 nM
- IC50 (BRDT(D1)): 46 nM

SMILES: CCOCc1nnc(C[C@@H]2N=C(c3ccc(Cl)cc3)c3c(sc(C)c3C)-n3c(C)nnc32)o1 [Compound 6, (S)-2-((4-(4-chlorophenyl)-2,3,9-trimethyl-6H-thieno[3,2-f][1,2,4]triazolo[4,3-a][1,4]diaza-6-yl)methyl)-5-(ethoxylmethyl)-1,3,4-oxodiazole]
- IC50 (BRD3(1, 2)): 20 nM
- IC50 (BRD2(1, 2)): 15 nM
- IC50 (CWR22RV1 cells): 61 nM
- IC50 (BRDT(D1)): 46 nM

SMILES: Cc1sc2c(c1C)C(c1ccc(Cl)cc1)=N[C@@H](Cc1nnc(C3CC3)o1)c1nnc(C)n1-2 [Compound 20, (S)-2-((4-(4-chlorophenyl)-2,3,9-trimethyl-6H-thieno[3,2-f][1,2,4]triazolo[4,3-a][1,4]diaza-6-yl)methyl)-5-cyclopropyl-1,3,4-oxodiazole]
- IC50 (BRD3(1, 2)): 20 nM
- IC50 (BRD2(1, 2)): 10.1 nM
- IC50 (CWR22RV1 cells): 37 nM
- IC50 (BRDT(D1)): 49 nM
